Laboratory results as given in patent US11840686B2, “Modulation of prekallikrein (PKK) expression” (Ionis Pharmaceuticals, Inc., priority 2013, dated 2023).
Several values for one entry are separate records, joined by “and”; a condition that tells them apart may be missing. Equal values may be shown once. Strand notation (5' to 3'): a small letter for the sugar, then the base; units joined by * are phosphorothioate-linked, units joined directly phosphodiester-linked; [ ] holds rarer units or linkages, { } end groups; capitals alone tell only the bases. e = 2'-O-(2-methoxyethyl) (MOE); k = constrained ethyl (cEt); [5mC] = 5-methylcytosine; d = 2'-deoxy (DNA)

Legend:
[1] = test system: human PKK mRNA; assay: Antisense inhibition of human PKK mRNA in HepaRG cells, 1,000 nM, MOE/deoxy/cEt oligonucleotides (Example 3); assay type: cell-based
How it was run: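 Readout is percent PKK mRNA reduction against untreated controls, by real-time PCR (RTS3454) adjusted for total RNA via RIBOGREEN. Oligonucleotides, phosphorothioate gapmers of 16 nucleosides with cEt, MOE and deoxy sugars, were delivered at 1,000 nM by electroporation to 20,000 HepaRG cells/well for roughly 24 h.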

[2] = test system: human PKK mRNA; assay: Dose-dependent antisense inhibition of human PKK in HepaRG cells, 0.11-3.00 uM (Example 6); assay type: cell-based; conditions: for IC50: 0.11-3.00 μM; for percent inhibition of PKK mRNA, 0.11 μM / percent inhibition of PKK mRNA, 0.33 μM / percent inhibition of PKK mRNA, 1.00 μM / percent inhibition of PKK mRNA, 3.00 μM: electroporation, approx. 16 hours, relative to untreated control cells
Description: Cells were plated at a density of 20,000 cells per well and transfected using electroporation with 0.11 μM, 0.33 μM, 1.00 μM, and 3.00 μM concentrations of antisense oligonucleotide. After a treatment period of approximately 16 hours, RNA was isolated from the cells and PKK mRNA levels were measured by quantitative real-time PCR. Human PKK primer probe set RTS3454 was used to measure mRNA levels. PKK mRNA levels were adjusted according to total RNA content, as measured by RIBOGREEN®. The antisense oligonucleotides were tested in a series of experiments that had similar culture conditions.
The half maximal inhibitory concentration (IC50) of each oligonucleotide is also presented.

[3] = Table 22 experiment, HepaRG cells, electroporation with 1,000 nM antisense oligonucleotide, approx. 24 hours, PKK mRNA by RT-PCR (RTS3454), relative to untreated control cells
[4] = HepaRG cells, 1,000 nM antisense oligonucleotide, Table 29
[5] = Table 27, HepaRG cells, 1,000 nM antisense oligonucleotide, human PKK mRNA
[6] = Table 30, human PKK mRNA, HepaRG cells, 1,000 nM antisense oligonucleotide
[7] = Table 21 experiment, HepaRG cells, electroporation with 1,000 nM antisense oligonucleotide, approx. 24 hours, PKK mRNA by RT-PCR (RTS3454), relative to untreated control cells
[8] = HepaRG cells, electroporation with 1,000 nM antisense oligonucleotide, approximately 24 hours, primer probe set RTS3454, relative to untreated control cells, experiment of Table 23
[9] = HepaRG cells, electroporation with 1,000 nM antisense oligonucleotide, approx. 24 hours, PKK mRNA by RT-PCR (RTS3454), relative to untreated control cells, Table 25 experiment

Row | Substance | % inhibition [1, 3] [%] | IC50 [2] | percent inhibition of PKK mRNA, 0.11 μM [2] [%] | percent inhibition of PKK mRNA, 0.33 μM [2] [%] | percent inhibition of PKK mRNA, 1.00 μM [2] | percent inhibition of PKK mRNA, 3.00 μM [2] | % inhibition [1, 4] [%] | % inhibition [1, 5] [%] | % inhibition [1, 6] [%] | % inhibition [1, 7] [%] | % inhibition [1, 8] [%] | % inhibition [1, 9] [%] | % inhibition ([1]; HepaRG cells, electroporation with 1,000 nM antisense oligonucleotide, approx. 24 hours, PKK mRNA by RT-PCR (RTS3454), relative to untreated control cells, Table 26 experiment) [%] | % inhibition ([1]; HepaRG cells, electroporation with 1,000 nM antisense oligonucleotide, approximately 24 hours, primer probe set RTS3454, relative to untreated control cells, experiment of Table 24) [%] | % inhibition ([1]; PKK mRNA, HepaRG cells, 1,000 nM antisense oligonucleotide, Table 31) [%] | % inhibition ([1]; Table 19, HepaRG cells, electroporation with 1,000 nM antisense oligonucleotide, approximately 24 hours, PKK mRNA by RT-PCR (RTS3454), relative to untreated control cells) [%] | % inhibition ([1]; Table 20, HepaRG cells, electroporation with 1,000 nM antisense oligonucleotide, approximately 24 hours, PKK mRNA by RT-PCR (RTS3454), relative to untreated control cells) [%] | % inhibition ([1]; Table 28, HepaRG cells, 1,000 nM antisense oligonucleotide, human PKK mRNA) [%]
1 | 547857 (antisense e[5mC]*eT*k[5mC]*dA*dT*dA*dT*d[5mC]*dA*dA*d[5mC]*dT*d[5mC]*k[5mC]*kT*eT) [compound 547857] | 84 | 200 nM | 36 | 66 | 77% | 93% | – | – | – | – | – | – | – | – | – | – | – | –
2 | 548558 (antisense eA*eA*k[5mC]*dA*dT*dT*dG*dT*dG*dT*dA*dG*d[5mC]*kT*kG*e[5mC]) [compound 548558] | – | – | 53 | 61 | 78% | 95% | 75 | – | – | – | – | – | – | – | – | – | – | –
3 | 548348 (antisense eT*eG*kA*dG*dT*dG*dA*dT*dG*d[5mC]*d[5mC]*dT*dT*k[5mC]*k[5mC]*eA) [compound 548348] | – | 400 nM | 19 | 46 | 67% | 91% | – | 82 | – | – | – | – | – | – | – | – | – | –
4 | 548409 (antisense eG*eT*kA*dT*d[5mC]*dA*d[5mC]*dT*dG*dT*dA*d[5mC]*dT*kA*kG*eT) [compound 548409] | – | 300 nM | 21 | 60 | 90% | 93% | – | – | 81 | – | – | – | – | – | – | – | – | –
5 | 547835 (e[5mC]*e[5mC]*kA*dG*dA*dA*dA*d[5mC]*dT*dG*d[5mC]*dA*d[5mC]*k[5mC]*kT*eG; antisense) [compound 547835] | – | 900 nM | 44 | 27 | 53% | 79% | – | – | – | 81 | – | – | – | – | – | – | – | –
6 | 547946 (eG*eA*kA*d[5mC]*dT*dT*dG*dG*dT*dG*dT*dG*d[5mC]*k[5mC]*kA*e[5mC]; antisense) [compound 547946] | – | 500 nM | 0 | 47 | 74% | – | – | – | – | – | 81 | – | – | – | – | – | – | –
7 | 548195 (eT*eT*k[5mC]*dT*dG*d[5mC]*d[5mC]*dA*dA*d[5mC]*dA*dG*dT*kT*kT*e[5mC]; antisense) [compound 548195] | – | 800 nM | 5 | 23 | 61% | 76% | – | – | – | – | – | 84 | – | – | – | – | – | –
8 | 547747 (eT*e[5mC]*kA*d[5mC]*dT*dG*dT*dA*d[5mC]*dT*dA*dG*dT*kT*kT*e[5mC]) [compound 547747] | 91 | 400 nM and 300 nM and 500 nM | – | – | 81% and 90% and 72% and 85% | 89% and 92% and 90% and 96% | 64 | 67 | 64 | 88 | 83 | 66 | 80 | 80 | 88 | 95 | 84 | 64
9 | 547922 (eT*eG*kG*dA*dG*dT*dG*dA*dG*dA*dA*d[5mC]*d[5mC]*k[5mC]*kT*eG; antisense) [compound 547922] | – | – | 67 | 75 | 81% | 92% | – | – | – | – | 79 | – | – | – | – | – | – | –
10 | 547942 (eG*eG*kT*dG*dT*dG*d[5mC]*d[5mC]*dA*d[5mC]*dT*dT*dT*k[5mC]*kA*eG; antisense) [compound 547942] | – | 300 nM | 25 | 51 | 91% | – | – | – | – | – | 85 | – | – | – | – | – | – | –
